From ChEMBL document CHEMBL1201862, “PubChem BioAssay data set” (2004)
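Dose response: 5 concentrations. Exposure: 48 h. Format: 96-well plates. Endpoint: linear interpolation; highest concentration if not reached. The concentration for 50% growth inhibition is given as GI50.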 Active and inactive are the calls of the source. Cut-off read from the data, not from the text of the source: active = GI50 up to about 1.1 µM and inactive = higher.

Key:
Experiment in all cases: DTP human tumour cell line panel, 48 h
[1] = tested on: SNB-19
[2] = tested on: SK-MEL-5
[3] = tested on: PC-3
[4] = tested on: KM12
[5] = tested on: UO-31
[6] = tested on: OVCAR-3
[7] = tested on: SF-539
[8] = tested on: UACC-62
[9] = tested on: MOLT-4
[10] = tested on: Malme-3M
[11] = tested on: MDA-MB-435
[12] = tested on: NCI-H23
[13] = tested on: SK-MEL-2
[14] = tested on: OVCAR-8
[15] = tested on: K562
[16] = tested on: SNB-75
[17] = tested on: SW-620
[18] = tested on: NCI/ADR-RES
[19] = tested on: A498
[20] = tested on: IGROV-1
[21] = tested on: SK-OV-3
[22] = tested on: LOX IMVI
[23] = tested on: TK-10
[24] = tested on: ACHN
[25] = tested on: DU-145
[26] = tested on: SR
[27] = tested on: SF-295
[28] = tested on: SK-MEL-28
[29] = tested on: HOP-62
[30] = tested on: NCI-H226
[31] = tested on: HCT-116
[32] = tested on: SN12C
[33] = tested on: HCC 2998
[34] = tested on: OVCAR-5
[35] = tested on: 786-0
[36] = tested on: OVCAR-4
[37] = tested on: MCF7
[38] = tested on: RPMI-8226
[39] = tested on: HCT-15
[40] = tested on: CAKI-1
[41] = tested on: SF-268
[42] = tested on: M14
[43] = tested on: UACC-257
[44] = tested on: HT-29
[45] = tested on: T47D
[46] = tested on: U-251
[47] = tested on: HL-60
[48] = tested on: EKVX
[49] = tested on: RXF 393
[50] = tested on: MDA-N
[51] = tested on: A549
[52] = tested on: MDA-MB-231
[53] = tested on: CCRF-CEM
[54] = tested on: BT-549
[55] = tested on: Hs-578T
[56] = tested on: COLO 205
[57] = tested on: NCI-H460
[58] = tested on: HOP-92
[59] = tested on: NCI-H522

Measured: GI50

CCN1CCCn2c(=O)[nH]c3cc(Br)cc1c32
inactive: [1] 89.1 µM | [2] > 100 µM | [3] > 100 µM | [4] > 100 µM | [5] > 100 µM | [6] > 100 µM | [7] 23 µM | [8] 69.8 µM | [9] 60.8 µM | [10] > 100 µM | [11] > 100 µM | [12] > 100 µM | [13] > 100 µM | [14] 27 µM | [15] > 100 µM | [16] 16.7 µM | [17] > 100 µM | [18] > 100 µM | [19] 15.1 µM | [20] > 100 µM | [21] 25.2 µM | [22] > 100 µM | [23] 51.6 µM | [24] > 100 µM | [25] > 100 µM | [26] > 100 µM | [27] 35.1 µM | [28] > 100 µM | [29] 25.5 µM | [30] 55.5 µM | [31] > 100 µM | [32] > 100 µM | [33] > 100 µM | [34] > 100 µM | [35] 65 µM | [36] > 100 µM | [37] > 100 µM | [38] > 100 µM | [40] > 100 µM | [41] 24 µM | [42] > 100 µM | [43] > 100 µM | [44] > 100 µM | [45] 65.5 µM | [46] 41.3 µM | [47] > 100 µM | [49] 15.2 µM | [50] > 100 µM | [51] > 100 µM | [52] 38.4 µM | [53] > 100 µM | [54] 14.6 µM | [56] > 100 µM | [57] > 100 µM
> 100 µM: [39]
active: [48] 0.706 µM | [55] 0.394 µM

O=C1CC(=O)NC(NN2C(=O)CSC2c2ccc(Cl)c(Cl)c2)=N1 (stereo not given)
> 100 µM: [39]
inactive: [2] > 100 µM | [3] > 100 µM | [4] 42.7 µM | [5] > 100 µM | [6] > 100 µM | [7] > 100 µM | [8] 42.6 µM | [9] 23.3 µM | [10] > 100 µM | [58] > 100 µM | [11] 65 µM | [59] 71.8 µM | [12] > 100 µM | [13] > 100 µM | [14] > 100 µM | [15] 49.8 µM | [16] 75 µM | [17] > 100 µM | [18] > 100 µM | [19] > 100 µM | [20] 50.9 µM | [21] > 100 µM | [23] > 100 µM | [24] > 100 µM | [25] > 100 µM | [26] 43.8 µM | [27] > 100 µM | [28] > 100 µM | [29] > 100 µM | [30] > 100 µM | [31] 63.2 µM | [32] > 100 µM | [33] > 100 µM | [34] > 100 µM | [35] > 100 µM | [36] > 100 µM | [37] > 100 µM | [38] > 100 µM | [40] > 100 µM | [41] > 100 µM | [42] 31.6 µM | [43] > 100 µM | [44] 76.2 µM | [45] > 100 µM | [46] > 100 µM | [49] > 100 µM | [50] 82.8 µM | [51] > 100 µM | [52] > 100 µM | [53] 19.5 µM | [54] > 100 µM | [55] > 100 µM | [56] > 100 µM | [57] > 100 µM

COC(=O)/C=C/c1cc(OC)c2oc(-c3ccc(OC)c(OC)c3)c(C(=O)OC)c2c1
> 100 µM: [39]
inactive: [1] > 100 µM | [2] > 100 µM | [3] > 100 µM | [4] > 100 µM | [5] > 100 µM | [6] > 100 µM | [8] > 100 µM | [9] > 100 µM | [10] > 100 µM | [58] > 100 µM | [11] > 100 µM | [12] > 100 µM | [13] > 100 µM | [14] > 100 µM | [15] > 100 µM | [17] > 100 µM | [18] > 100 µM | [19] > 100 µM | [20] > 100 µM | [21] > 100 µM | [22] > 100 µM | [23] > 100 µM | [24] > 100 µM | [25] > 100 µM | [26] > 100 µM | [27] > 100 µM | [28] > 100 µM | [32] > 100 µM | [33] > 100 µM | [34] > 100 µM | [35] > 100 µM | [36] > 100 µM | [37] > 100 µM | [38] > 100 µM | [40] > 100 µM | [41] > 100 µM | [42] > 100 µM | [43] > 100 µM | [44] > 100 µM | [45] > 100 µM | [46] > 100 µM | [47] > 100 µM | [48] > 100 µM | [50] > 100 µM | [51] > 100 µM | [52] > 100 µM | [53] > 100 µM | [54] > 100 µM | [55] > 100 µM | [56] > 100 µM | [57] > 100 µM

NC(CSc1nc2ccccn2c1[N+](=O)[O-])C(=O)O (stereo not given)
> 100 µM: [39]
inactive: [1] > 100 µM | [2] > 100 µM | [3] > 100 µM | [4] > 100 µM | [5] 2.49 µM | [6] > 100 µM | [7] > 100 µM | [8] > 100 µM | [10] > 100 µM | [58] > 100 µM | [11] > 100 µM | [59] > 100 µM | [12] > 100 µM | [13] > 100 µM | [14] > 100 µM | [15] > 100 µM | [16] > 100 µM | [17] > 100 µM | [18] > 100 µM | [19] > 100 µM | [20] > 100 µM | [21] > 100 µM | [23] > 100 µM | [24] > 100 µM | [25] > 100 µM | [26] 61.1 µM | [27] > 100 µM | [28] > 100 µM | [29] > 100 µM | [30] > 100 µM | [31] > 100 µM | [32] > 100 µM | [33] > 100 µM | [34] > 100 µM | [35] > 100 µM | [36] > 100 µM | [37] > 100 µM | [38] > 100 µM | [40] > 100 µM | [41] > 100 µM | [42] > 100 µM | [43] > 100 µM | [44] > 100 µM | [45] > 100 µM | [46] > 100 µM | [48] > 100 µM | [49] > 100 µM | [50] > 100 µM | [51] > 100 µM | [52] > 100 µM | [54] > 100 µM | [55] > 100 µM | [56] > 100 µM | [57] > 100 µM

CC(C(=O)O)C1Nc2ccccc2NC1=O (stereo not given)
inactive: [1] > 100 µM | [2] > 100 µM | [3] > 100 µM | [4] > 100 µM | [5] > 100 µM | [6] > 100 µM | [7] > 100 µM | [8] > 100 µM | [9] 25.2 µM | [10] > 100 µM | [58] > 100 µM | [11] > 100 µM | [12] > 100 µM | [13] > 100 µM | [14] > 100 µM | [15] > 100 µM | [16] > 100 µM | [17] > 100 µM | [18] > 100 µM | [19] > 100 µM | [20] > 100 µM | [21] > 100 µM | [22] > 100 µM | [23] > 100 µM | [24] > 100 µM | [25] > 100 µM | [26] 65.6 µM | [27] > 100 µM | [28] > 100 µM | [30] > 100 µM | [31] > 100 µM | [33] > 100 µM | [34] > 100 µM | [35] > 100 µM | [36] > 100 µM | [37] > 100 µM | [38] 37.4 µM | [40] > 100 µM | [41] > 100 µM | [42] > 100 µM | [43] > 100 µM | [44] > 100 µM | [45] > 100 µM | [46] > 100 µM | [47] 23.3 µM | [48] > 100 µM | [49] > 100 µM | [50] > 100 µM | [51] > 100 µM | [52] > 100 µM | [53] 14.2 µM | [54] > 100 µM | [55] > 100 µM | [56] > 100 µM | [57] > 100 µM
> 100 µM: [39]
